{"source": "patent US20100272791A1", "about": "“COMPOSITION HAVING EFFECT ON TREATMENT AND PREVENTION OF DRY EYE SYNDROME” (MD BIOALPHA CO., LTD., priority 2005, published 2010)", "key": {"corneal keratocytes [1]": {"tested_on": "corneal keratocytes", "experiment": "Production of hyaluronic acid in corneal keratocytes (b-HABP plate assay)", "format": "cell-based", "conditions": "uridine 0 μM to 10 μM, 48 hours; effect up to 5 μM, concentration-dependent; FIG. 1", "procedure": "Corneal keratocytes were stimulated for 48 hours by treatment of the cells with uridine (0 μM to 10 μM). 100 μl of the cell culture was collected, and reacted with 100 μl of biotinylated hyaluronic acid binding protein (b-HABP, 50 ng/mL) at room temperature for 1 hour. On the day prior to experiments, 20 μg/mL of HA and a solution of 20 mM Na2CO3 were added to a 96-well plate which was then stored in a refrigerator for 24 hours, and washed with a standard assay buffer (SAB) three times. 1% BSA was added to the 96-well plate which was then reacted at room temperature for 90 min and washed with SAB three times to thereby prepare an HA-coated plate. The above-prepared cell culture was added to the HA-coated plate, and reacted with stirring at room temperature for 1 hour. Thereafter, the cell culture thus reacted was washed with SAB three times, followed by addition of Extra-avidin alkaline phosphatase (1:80000), reaction at room temperature for 30 min, and washing with SAB three times. 1 mg/mL of a disodium p-nitrophenyl solution in 100 mM NaCl and 5 mM MgCl was added to the cell culture which was then reacted for 20 to 60 min. Thereafter, 3N NaOH was added to terminate the reaction, and an amount of hyaluronic acid was measured at 405 nm."}, "corneal keratocytes [2]": {"tested_on": "corneal keratocytes", "experiment": "Production of glycosaminoglycan in corneal keratocytes (Biocolor assay kit)", "format": "cell-based", "conditions": "uridine 0 μM to 50 μM, 48 hours, effect from 1 μM, concentration-dependent, FIG. 2", "procedure": "Corneal keratocytes were stimulated for 48 hours by treatment of the cells with uridine (0 μM to 50 μM). The cell culture was collected, and an amount of glycosaminoglycan was measured at 550 nm using a Biocolor assay kit."}, "corneal keratocytes [3]": {"tested_on": "corneal keratocytes", "experiment": "Production of nitric oxide (NO) in H2O2-stimulated corneal keratocytes (Griess reagent)", "format": "cell-based", "conditions": "100 μM H2O2, then uridine 0 μM to 100 μM, 48 hours, effect up to 50 μM, concentration-dependent, FIG. 3"}, "corneal keratocytes [4]": {"tested_on": "corneal keratocytes", "experiment": "Proliferation of corneal keratocytes (CCK-8)", "format": "cell-based", "conditions": "uridine 0 μM to 10 μM, 48 hours; effect from 0.1 μM or higher; FIG. 4", "procedure": "Corneal keratocytes were incubated in a 96-well plate and stimulated with uridine (0 μM to 10 μM) for 48 hours. Cell count was carried out at 450 nm using a Cell counting kit-8 (CCK-8)."}, "ocular epithelial cells [5]": {"tested_on": "ocular epithelial cells", "experiment": "Production of glycosaminoglycan in corneal epithelial cells (Biocolor assay kit)", "format": "cell-based", "conditions": "uridine 0 μM to 50 μM, 48 hours, concentration-dependent, FIG. 5", "procedure": "Ocular epithelial cells were stimulated for 48 hours by treatment with uridine (0 μM to 50 μM). The cell culture was collected, and an amount of glycosaminoglycan was measured at 550 nm using a Biocolor assay kit."}, "ocular epithelial cells [6]": {"tested_on": "ocular epithelial cells", "experiment": "Production of nitric oxide (NO) in H2O2-stimulated corneal epithelial cells (Griess reagent)", "format": "cell-based", "conditions": "100 μM H2O2, then uridine 0 μM to 100 μM, 48 hours, concentration-dependent, FIG. 6"}, "dry eye-induced rabbits": {"tested_on": "dry eye-induced rabbits", "experiment": "Concanavalin A-induced dry eye in rabbits, eye drops, impression cytology", "format": "in vivo, rabbit", "conditions": "uridine eye drops in phosphate-buffered saline (1% and 5%), compared to 0.1% hyaluronic acid positive control and PBS control; FIG. 7", "procedure": "Dry eye syndrome was induced by causing ocular inflammation via injection of concanavalin A into the lacrimal gland of rabbits (Journal of Ocular Pharmacology & Therapeutics 21(2), 139-148, 2005). Uridine was dissolved to a concentration of […] in a phosphate-buffered saline solution, respectively, and the resulting solutions were used as eye drops. A commercially available 0.1% hyaluronic acid preparation was used as a positive control group, and a phosphate-buffered saline solution was used as a control group. 1% and 5% uridine preparations, the hyaluronic acid preparation and the phosphate-buffered saline solution were respectively dropped into eyes of the dry eye-induced rabbits, and the impression cytology of ocular cells was performed to confirm alleviation of dry eye syndrome."}, "dry eye patients": {"tested_on": "dry eye patients", "experiment": "Clinical test, oral uridine in dry eye patients (double blind, placebo)", "format": "in vivo, human", "conditions": "oral uridine 100 mg/day, three times a day for 3 months, versus placebo", "procedure": "At initial point of treatment and two weeks, one month, two months and three months after initiation of treatment, changes in corneal symptoms and conditions and the presence/absence of adverse side effects were objectively evaluated by slit-lamp microscopic examination, measurement of intraocular pressure, ophthalmoscopic examination, Schirmer test, impression cytology and analysis photography of anterior eye segment. In addition, subjective questionnaires of individual patients were prepared, and changes in subjective symptoms of patients and the presence/absence of adverse side effects were observed."}}}
{"molecule": "O=c1ccn([C@@H]2O[C@H](CO)[C@@H](O)[C@H]2O)c(=O)[nH]1", "note": "[uridine]", "values": [{"measurement": "production of hyaluronic acid", "setting": "corneal keratocytes [1]", "value": "promoted production of hyaluronic acid"}, {"measurement": "production of glycosaminoglycan", "setting": "corneal keratocytes [2]", "value": "promoted production of glycosaminoglycan"}, {"measurement": "production of nitric oxide (NO)", "setting": "corneal keratocytes [3]", "value": "inhibited production of nitric oxide (NO)"}, {"measurement": "proliferation of cells", "setting": "corneal keratocytes [4]", "value": "promoted proliferation of cells"}, {"measurement": "production of glycosaminoglycan", "setting": "ocular epithelial cells [5]", "value": "promoted production of glycosaminoglycan"}, {"measurement": "production of nitric oxide (NO)", "setting": "ocular epithelial cells [6]", "value": "inhibited production of nitric oxide (NO)"}, {"measurement": "restoration of epithelial cells in the impression cytology of ocular cells", "setting": "dry eye-induced rabbits", "value": "significant restoration of epithelial cells"}, {"measurement": "tear-secretion test (Schirmer test)", "setting": "dry eye patients; FIG. 8", "value": "significant difference"}, {"measurement": "corneal staining", "setting": "dry eye patients; FIG. 9", "value": "significant difference"}]}
